Consider one compound from ChEMBL document CHEMBL1158843, “Development of a radiochemical cyclooxygenase-1 and -2 in vitro assay for identification of natural products as inhibitors of prostaglandin biosynthesis” (J Nat Prod, 1998).

This experiment has as its target T1, Prostaglandin G/H synthase 1 (Bos taurus) (UniProt O62664).
T1 sequence (whole entry): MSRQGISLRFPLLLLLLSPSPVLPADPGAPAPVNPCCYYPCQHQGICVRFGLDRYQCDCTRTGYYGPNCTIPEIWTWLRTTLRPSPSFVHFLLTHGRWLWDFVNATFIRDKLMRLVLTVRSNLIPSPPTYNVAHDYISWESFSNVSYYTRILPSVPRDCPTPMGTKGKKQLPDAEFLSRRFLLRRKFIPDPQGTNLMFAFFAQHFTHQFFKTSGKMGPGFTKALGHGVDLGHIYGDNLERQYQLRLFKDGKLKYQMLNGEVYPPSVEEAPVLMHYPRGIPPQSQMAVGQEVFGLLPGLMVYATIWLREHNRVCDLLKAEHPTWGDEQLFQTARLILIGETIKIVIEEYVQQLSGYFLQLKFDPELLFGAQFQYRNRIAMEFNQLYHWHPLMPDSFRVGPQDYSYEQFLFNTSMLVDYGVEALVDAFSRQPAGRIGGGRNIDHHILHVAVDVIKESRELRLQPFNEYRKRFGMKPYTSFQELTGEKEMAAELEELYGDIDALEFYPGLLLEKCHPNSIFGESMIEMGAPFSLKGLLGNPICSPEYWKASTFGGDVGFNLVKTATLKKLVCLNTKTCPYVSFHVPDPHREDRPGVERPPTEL
As to the kind of experiment: Inhibition of bovine seminal microsomal COX1 assessed as PGE2 production at 100 uM preincubated for 10 mins.

Broadly, the inhibition is how much of the control response was suppressed. With `CS(=O)(=O)Nc1ccc([N+](=O)[O-])cc1OC1CCCCC1`, the inhibition turned out to be 9%.
